Experimental data as given in patent US20130210143A1, “NOVEL METHODS FOR PREVENTING OR TREATING DIABETES” (FUNDACION PUBLICA ANDALUZA PROGRESO Y SALUD, priority 2010, published 2013).
“Also recorded” adds a separate entry of the source.

Experiments:
[1] = test system: human islets; experiment: MTT toxicity test (cell viability) in isolated human islets; type: cell-based; conditions: for Islet viability (MTT): islets of the first Type 2 diabetic donor, 48 h, Formula II at 50 uM
Method: The MTT (C,N-diphenyl-N′-4,5-dimethyl thiazol-2-yl tetrazolium bromide) colorimetric assay (reduction of tetrazolium salt to formazan) was used to measure cell viability. The assay provides an indirect estimation of mitochondrial oxidative processes of living cells (Janjic, 1992). Briefly, 40 isolated human islets were incubated for 24 or 48 hours with DMSO or a combination of DMSO and the LRH-1 agonist of Formula II. Islets were washed and pre-incubated with KRBH at 37° C. for 40 minutes. Islets were then incubated at 37° C. for 90 minutes with KRBH containing yellow MTT (0.5 mg/ml). Cells were wash and incubated for 20 minutes at room temperature in DMSO to solubilize formazan crystals. Colorimetric measurements were performed at 570 nm with reference wavelength 650 nm automatically subtracted.

[2] = test system: LRH-1; experiment: Quantitative RT-PCR of LRH-1 transcript levels in treated human islets; type: cell-based; conditions: for LRH-1 expression (transcript levels): 10 nM 17β-estradiol (6 hours) or 10 or 50 uM Formula II (any time point)
Method: (§1) INS-1E cells or islets (rat or human) were cultured in phenol red free medium containing 10% Charcoal-stripped FCS for 48 h. The latter removes all traces of endogenous steroids, which may skew results. Subsequently, 0.0001% DMSO (vehicle) and/or 10 nM 17β-estradiol were added to the media. Alternatively human islets were also treated with increasing concentrations of either DMSO (vehicule) or with a combination of estrogen and the LRH-1 agonist of Formula II (SevenHills Pharma, Fort Collins, USA) for various time intervals. For apoptosis studies (FIG. 8A), islets were pre-treated with 0.1% DMSO (vehicule) or with 10 μM of the LRH-1 agonist of Formula II. Twenty-four hours later, DMSO or the LRH-1 agonist of Formula II were added again to the medium and incubated for 1 extra hour prior to the addition of either a cocktail of human cytokines (2 ng/ml IFN-γ, IL-1β and TNF-α). Samples of 50 islets were then collected at 24 and 72 hours. The media was replenished with DMSO and the LRH-1 agonist of Formula II at 24 and 48 hours.
(§2) Total RNA was extracted using the RNeasy Micro Kit (Qiagen) and 1-2 μg was converted into cDNA with the Superscript II Reverse transcriptase (Invitrogen). Primers were designed using the Primer Express software (Applera Europe, Rotkreuz, Switzerland) and sequences are provided in Table 1. Real time PCR was performed using an ABI 7000 Sequence Detection System (Applera Europe), and PCR products were quantified fluorometrically using the FastStart Universal SYBR Green Master (Roche Diagnostics, Rotkreuz, Switzerland). Three distinct amplifications were performed in duplicate for each transcript, and mean values were normalized to the mean value of the reference mRNA cyclophilin.

[3] = test system: SHP; experiment: Quantitative RT-PCR of SHP (LRH-1 downstream target) transcript levels in treated human islets; type: cell-based; conditions: for Further stimulation of SHP expression: human islets, increased concentration of Formula II or addition of 17β-estradiol
Method: as §1, §2

[4] = test system: human islets; experiment: Cytokine-induced apoptosis in human islets (Cell Death Detection ELISA); type: cell-based; conditions: 10 uM, cytokines 2 ng/ml IFN-γ, IL-1β and TNF-α, 24 hours post-treatment
Method: INS-1E cells or islets (rat or human) were cultured in phenol red free medium containing 10% Charcoal-stripped FCS for 48 h. The latter removes all traces of endogenous steroids, which may skew results. Subsequently, 0.0001% DMSO (vehicle) and/or 10 nM 17β-estradiol were added to the media. Alternatively human islets were also treated with increasing concentrations of either DMSO (vehicule) or with a combination of estrogen and the LRH-1 agonist of Formula II (SevenHills Pharma, Fort Collins, USA) for various time intervals. For apoptosis studies (FIG. 8A), islets were pre-treated with 0.1% DMSO (vehicule) or with 10 μM of the LRH-1 agonist of Formula II. […]
For proliferation, 10 μM BrdU was added to INS-1E cells for 3 h, and to rat or human islets for 24 h. […] Cell apoptosis induced either by cytokines or streptozotocin was measured using the TUNEL assay (In Situ Cell Death Detection Kit, Roche). Alternatively, the Cell Death Detection ELISA^PLUS (Roche) was used to quantify the degree of cytoplasmic histone-associated-DNA-fragments. Results of BrdU and TUNEL assays are expressed as a percentage of BrdU- or TUNEL-positive cells (fluorescein- or TMR-red-labelled nuclei) over the total amount of cells (nuclei staining by DAPI). […]

[5] = test system: control islets; experiment: Glucose-stimulated insulin secretion, control (non-diabetic) human islets; type: cell-based
Method: (§3) Twenty human islets/sample were preincubated with KRBH buffer (135 mM NaCl, 3.6 mM KCl, 2 mM NaHCO3, 0.5 mM NaH2PO4, 0.5 mM MgSO4, 1.5 mM CaCl2, 10 mM HEPES, pH 7.4, and 0.1% bovine serum albumin) containing 2.5 mM glucose for 30 min. Cells were then incubated for 30 min in KRBH buffer containing 2.5 mM or 16.5 mM glucose. In some instances islets were also cultured in the presence of increasing concentrations of a LRH-1 agonist of Formula II or glibenclamide. Insulin content, obtained by 10% acetic acid/ethanol (v/v) treatment on islets, and secreted insulin were quantified using the rat insulin enzyme immunoassay kit (Spi-Bio, Montigny le Bretonneux, France).

[6] = test system: Type 2 diabetic islets; experiment: Glucose-stimulated insulin secretion, islets from Type 2 diabetic donors; type: cell-based, human
Method: as §3

[7] = target: T1, ligand binding domain of human LRH1 (Homo sapiens, UniProt O00482); conditions: Whitby et al. (2006); cited from earlier work
T1 construct: made in house
T1 sequence (O00482 300-541): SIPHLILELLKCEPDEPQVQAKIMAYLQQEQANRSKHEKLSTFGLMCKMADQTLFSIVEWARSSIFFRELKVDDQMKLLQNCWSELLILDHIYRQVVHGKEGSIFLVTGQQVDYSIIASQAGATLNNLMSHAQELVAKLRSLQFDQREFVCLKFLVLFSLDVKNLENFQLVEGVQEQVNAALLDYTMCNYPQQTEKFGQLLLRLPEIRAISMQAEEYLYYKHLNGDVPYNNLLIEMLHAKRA

[8] = islets from a second Type 2 diabetic donor

Q: What does the source list for `CCC/C=C(\CCC)C1=C(c2cccc(OC)c2)C2(Nc3ccccc3)CCCC2C1` (stereo not drawn) [Formula II]?
A: Viability by MTT (cytotoxicity) ([1]; human islets, up to 50 uM, 24 or 48 hours post treatment): no toxic effects; also recorded: no apparent detrimental effect; Islet viability (MTT) [1]: slightly reduced; LRH-1 expression (transcript levels) [2]: did not enhance transcript levels; LRH-1 expression on addition to 17β-estradiol ([2]; Formula II combined with 17β-estradiol): prevented the induction of LRH-1 expression; SHP transcript levels, increase ([3]; human islets treated for 10 hours, transient): 2 fold; Further stimulation of SHP expression [3]: did not further stimulate expression of SHP; Cytokine-induced enrichment in apoptotic cells, 24 hours [4]: completely abrogated; Increase in basal insulin exocytosis ([5]; 50 uM, low glucose): 50%; Glucose-induced insulin secretion ([5]; 16.5 mM glucose): unchanged; Glucose-induced insulin secretion ([6]; islets from a Type 2 diabetic donor, 50 uM, not significant): slight increase; Insulin secretion in response to high glucose concentrations [6, 8]: increased insulin secretion; Insulin secretion in response to low glucose concentrations [6, 8]: increased insulin secretion; EC50 [7]: 430 nM

Q: For `COc1ccc(Cl)cc1C(=O)NCCc1ccc(S(=O)(=O)NC(=O)NC2CCCCC2)cc1` [Glibenclamide, reference compound], which “Islet viability (MTT)” value [1] is on record?
A: impaired cell viability

Q: What about the “Insulin secretion at high glucose as compared to control islets” value ([6]; islets from a Type 2 diabetic donor, high glucose (16.5 mM)) of the same compound?
A: 214%

Q: And the “Increase in insulin secretion at low glucose” value ([6]; islets from a Type 2 diabetic donor, low glucose)?
A: 80%

Q: With `C[C@]12CC[C@@H]3c4ccc(O)cc4CC[C@H]3[C@@H]1CC[C@@H]2O` [17β-estradiol, reference compound] as the compound, how does the “LRH-1 expression (transcript levels)” value [2] read?
A: transiently increased

Q: What about the “Further stimulation of SHP expression” value [3] of the same compound?
A: did not further stimulate expression of SHP
